Experimental findings from ChEMBL document CHEMBL4251572, “Novel aminopyrimidinyl benzimidazoles as potentially antimicrobial agents: Design, synthesis and biological evaluation” (Eur J Med Chem, 2018) are described below.

Experiment [1] concerns Staphylococcus aureus. Nature of the experiment: Antibacterial activity against Staphylococcus aureus ATCC 25923 after 24 hrs by micro broth dilution assay. In kind it is functional. The settings on record: ATCC 25923, 24 h.
Experiment [2] relates to Staphylococcus aureus. As to the kind of experiment: Antibacterial activity against methicillin-resistant Staphylococcus aureus N315 after 24 hrs by micro broth dilution assay. Format: functional. The settings on record: N315, 24 h. Background: In broth dilution the organism is exposed to a series of concentrations in liquid medium.
Experiment [3] concerns Bacillus subtilis. As to the kind of experiment: Antibacterial activity against Bacillus subtilis after 24 hrs by micro broth dilution assay. In kind it is functional.
Experiment [4] deals with Micrococcus luteus. Nature of the experiment: Antibacterial activity against Micrococcus luteus ATCC4698 after 24 hrs by micro broth dilution assay. Format: functional. The settings on record: ATCC4698, 24 h.
For experiment [5], the system named is Bacillus. Nature of the experiment: Antibacterial activity against Bacillus proteus ATCC 13315 after 24 hrs by micro broth dilution assay. In kind it is functional. The settings on record: ATCC 13315, 24 h.
In experiment [6] the test system is Escherichia coli. Nature of the experiment: Antibacterial activity against Escherichia coli DH52 after 24 hrs by micro broth dilution assay. In kind it is functional. The settings on record: DH52, 24 h.
In experiment [7] the test system is Pseudomonas aeruginosa. As to the kind of experiment: Antibacterial activity against Pseudomonas aeruginosa after 24 hrs by micro broth dilution assay. In kind it is functional.
Experiment [8] deals with Salmonella typhi. As to the kind of experiment: Antibacterial activity against Bacillus typhi after 24 hrs by micro broth dilution assay. Format: functional, Salmonella enterica subsp. enterica serovar Typhi. The settings on record: Salmonella enterica.
Experiment [9] concerns Escherichia coli. Nature of the experiment: Antibacterial activity against Escherichia coli JM109 after 24 hrs by micro broth dilution assay. The settings on record: JM109, 24 h. In kind it is functional.
The test system of experiment [10] is Shigella dysenteriae. As to the kind of experiment: Antibacterial activity against Shigella dysenteriae after 24 hrs by micro broth dilution assay. Format: functional.
Experiment [11] concerns Candida albicans. As to the kind of experiment: Antifungal against Candida albicans ATCC 76615 after 24 hrs by two fold serial dilution method. Format: functional. The settings on record: ATCC 76615, 24 h.
The test system of experiment [12] is Pichia norvegensis. Nature of the experiment: Antifungal against Candida mycoderma after 24 hrs by two fold serial dilution method. In kind it is functional.
For experiment [13], the system named is Cyberlindnera jadinii. As to the kind of experiment: Antifungal against Candida utilis after 24 hrs by two fold serial dilution method. Format: functional. The settings on record: Williopsis jadinii.
Experiment [14] has as its system Saccharomyces cerevisiae. As to the kind of experiment: Antifungal against Saccharomyces cerevisiae after 24 hrs by two fold serial dilution method. In kind it is functional.
Experiment [15] deals with Aspergillus flavus. As to the kind of experiment: Antifungal against Aspergillus flavus after 24 hrs by two fold serial dilution method. In kind it is functional.

≈ marks a conversion by molar mass, not a printed value.

Usually MIC stands for the lowest concentration found to suppress growth. For `CCCCCCn1c(C(=O)/C=C/c2ccc(Cl)cc2)nc2ccccc21`, the MIC in experiment [1] was found to be 512 µg/mL (≈ 1400 µM); in experiment [2] it was 512 µg/mL (≈ 1400 µM); in [3], 256 µg/mL (≈ 698 µM); in experiment [4] it was 32 µg/mL (≈ 87.2 µM); in experiment [5], 512 µg/mL (≈ 1400 µM); in experiment [6], 16 µg/mL (≈ 43.6 µM). The MIC in experiment [7] is 512 µg/mL (≈ 1400 µM); in experiment [8] it was 128 µg/mL (≈ 349 µM); in [9], 512 µg/mL (≈ 1400 µM); in experiment [10], 512 µg/mL (≈ 1400 µM); in experiment [11] it was 512 µg/mL (≈ 1400 µM); in [12] it was 128 µg/mL (≈ 349 µM). Moreover, the MIC in experiment [13] was 512 µg/mL (≈ 1400 µM); in experiment [14], 8 µg/mL (≈ 21.8 µM); in [15], 128 µg/mL (≈ 349 µM).
Regarding `CCCCCCCCn1c(-c2cc(-c3ccc(C)cc3)nc(N)n2)nc2ccccc21`, the MIC in [1] is 512 µg/mL (≈ 1240 µM); in experiment [2], 512 µg/mL (≈ 1240 µM); in experiment [3] it was 512 µg/mL (≈ 1240 µM); in [4], 16 µg/mL (≈ 38.7 µM); in [5], 512 µg/mL (≈ 1240 µM); in [6], 8 µg/mL (≈ 19.3 µM). The MIC is 512 µg/mL (≈ 1240 µM) in experiment [7]; 512 µg/mL (≈ 1240 µM) in experiment [8]; 128 µg/mL (≈ 310 µM) in [9]; 512 µg/mL (≈ 1240 µM) in [10]; 512 µg/mL (≈ 1240 µM) in [11]; 512 µg/mL (≈ 1240 µM) in [12]. The values for the MIC in experiment [13], in experiment [14] and in [15] were 16 µg/mL (≈ 38.7 µM), 128 µg/mL (≈ 310 µM) and 512 µg/mL (≈ 1240 µM), respectively.
`CCCCCCCCn1c(C(=O)/C=C/c2ccc(Cl)cc2)nc2ccccc21`: the MIC in experiment [1] was 512 µg/mL (≈ 1300 µM); in experiment [2], 512 µg/mL (≈ 1300 µM); in experiment [3] it was 512 µg/mL (≈ 1300 µM); in [4], 512 µg/mL (≈ 1300 µM); in experiment [5], 512 µg/mL (≈ 1300 µM); in experiment [6], 8 µg/mL (≈ 20.3 µM). The MIC in experiment [7] stood at 512 µg/mL (≈ 1300 µM); in [8], 128 µg/mL (≈ 324 µM); in experiment [9] it was 512 µg/mL (≈ 1300 µM); in experiment [10] it was 512 µg/mL (≈ 1300 µM); in [11] it was 4 µg/mL (≈ 10.1 µM); in experiment [12] it was 512 µg/mL (≈ 1300 µM). The MIC in experiment [13] came out at 512 µg/mL (≈ 1300 µM); in [14] it was 4 µg/mL (≈ 10.1 µM); in experiment [15], 32 µg/mL (≈ 81 µM).
Regarding `CCCCn1c(-c2cc(-c3ccc(Cl)cc3Cl)nc(N)n2)nc2ccccc21`, the MIC turned out to be 512 µg/mL (≈ 1240 µM) in experiment [1]; 512 µg/mL (≈ 1240 µM) in experiment [2]; 512 µg/mL (≈ 1240 µM) in [3]; 16 µg/mL (≈ 38.8 µM) in experiment [4]; 512 µg/mL (≈ 1240 µM) in experiment [5]; 512 µg/mL (≈ 1240 µM) in experiment [6]. The MIC in [7] came to 128 µg/mL (≈ 310 µM); in experiment [8], 512 µg/mL (≈ 1240 µM); in experiment [9], 32 µg/mL (≈ 77.6 µM); in experiment [10] it was 256 µg/mL (≈ 621 µM); in experiment [11] it was 512 µg/mL (≈ 1240 µM); in experiment [12], 32 µg/mL (≈ 77.6 µM). In addition, the MIC stood at 64 µg/mL (≈ 155 µM) in experiment [13], 32 µg/mL (≈ 77.6 µM) in experiment [14] and 512 µg/mL (≈ 1240 µM) in experiment [15].
Regarding `O=C(/C=C/c1ccc(F)cc1)c1nc2ccccc2[nH]1`, the MIC was 16 µg/mL (≈ 60.1 µM) in experiment [1]; 64 µg/mL (≈ 240 µM) in [2]; 64 µg/mL (≈ 240 µM) in experiment [3]; 16 µg/mL (≈ 60.1 µM) in [4]; 32 µg/mL (≈ 120 µM) in [5]; 64 µg/mL (≈ 240 µM) in experiment [6]. The MIC was found to be 128 µg/mL (≈ 481 µM) in [7]; 32 µg/mL (≈ 120 µM) in experiment [8]; 16 µg/mL (≈ 60.1 µM) in experiment [9]; 256 µg/mL (≈ 961 µM) in [10]; 128 µg/mL (≈ 481 µM) in [11]; 128 µg/mL (≈ 481 µM) in experiment [12]. For the same compound, the figures for the MIC in [13], in experiment [14] and in experiment [15] were more than 512 µg/mL, 4 µg/mL (≈ 15 µM) and 512 µg/mL (≈ 1920 µM), respectively.
As to `CCCCn1c(C(=O)/C=C/c2ccc(F)cc2)nc2ccccc21`, the MIC was determined as 4 µg/mL (≈ 12.4 µM) in experiment [1]; 8 µg/mL (≈ 24.8 µM) in experiment [2]; 4 µg/mL (≈ 12.4 µM) in experiment [3]; 8 µg/mL (≈ 24.8 µM) in experiment [4]; 512 µg/mL (≈ 1590 µM) in experiment [5]; 64 µg/mL (≈ 199 µM) in experiment [6]. Further, the MIC in experiment [7] came out at 0.5 µg/mL (≈ 1.55 µM); in experiment [8], 8 µg/mL (≈ 24.8 µM); in experiment [9] it was 16 µg/mL (≈ 49.6 µM); in [10], 4 µg/mL (≈ 12.4 µM); in [11], 16 µg/mL (≈ 49.6 µM); in [12], 64 µg/mL (≈ 199 µM). Moreover, the MIC came to 16 µg/mL (≈ 49.6 µM) in experiment [13], 512 µg/mL (≈ 1590 µM) in experiment [14] and 128 µg/mL (≈ 397 µM) in experiment [15].
`CCCCCCn1c(-c2cc(-c3ccc(C)cc3)nc(N)n2)nc2ccccc21`: the MIC is 128 µg/mL (≈ 332 µM) in [1]; 16 µg/mL (≈ 41.5 µM) in experiment [2]; 128 µg/mL (≈ 332 µM) in experiment [3]; 16 µg/mL (≈ 41.5 µM) in experiment [4]; 16 µg/mL (≈ 41.5 µM) in [5]; 32 µg/mL (≈ 83 µM) in [6]. The MIC in [7] amounted to 64 µg/mL (≈ 166 µM); in experiment [8] it was 16 µg/mL (≈ 41.5 µM); in experiment [9], 16 µg/mL (≈ 41.5 µM); in experiment [10], 256 µg/mL (≈ 664 µM); in experiment [11], 32 µg/mL (≈ 83 µM); in [12] it was 8 µg/mL (≈ 20.8 µM). In addition, the values for the MIC in experiment [13], in experiment [14] and in experiment [15] were 8 µg/mL (≈ 20.8 µM), 16 µg/mL (≈ 41.5 µM) and 512 µg/mL (≈ 1330 µM), respectively.
`Cc1ccc(/C=C/C(=O)c2nc3ccccc3[nH]2)cc1`: the minimum inhibitory concentration (MIC) in experiment [1] is 8 µg/mL (≈ 30.5 µM); in [2] it was 8 µg/mL (≈ 30.5 µM); in experiment [3], 16 µg/mL (≈ 61 µM); in experiment [4], 16 µg/mL (≈ 61 µM); in experiment [5] it was 4 µg/mL (≈ 15.2 µM); in experiment [6], 8 µg/mL (≈ 30.5 µM). For the same compound, the MIC in [7] was 4 µg/mL (≈ 15.2 µM); in [8] it was 2 µg/mL (≈ 7.62 µM); in experiment [9], 4 µg/mL (≈ 15.2 µM); in experiment [10] it was 16 µg/mL (≈ 61 µM); in experiment [11], 4 µg/mL (≈ 15.2 µM); in [12], 32 µg/mL (≈ 122 µM). Besides, the MIC in experiment [13] was 16 µg/mL (≈ 61 µM); in experiment [14], 8 µg/mL (≈ 30.5 µM); in experiment [15], 16 µg/mL (≈ 61 µM).
